Test results: ChEMBL document CHEMBL5042554, “Discovery of Pyridone-Substituted Triazolopyrimidine Dual A2A/A1 AR Antagonists for the Treatment of Ischemic Stroke” (ACS Med Chem Lett, 2022)

Experiments:
Adenosine receptor A2a [1] = target: T1, Adenosine receptor A2a (Homo sapiens, UniProt P29274); test: Antagonist activity at human recombinant adenosine A2A receptor transfected in HEK293 cells co-transfected with Galpha15/16 assessed as intracellular calcium change incubated for 10 mins by microplate reader method; format: functional, cell-based
Adenosine receptor A2a [2] = target: T1, Adenosine receptor A2a; test: Displacement of [3H] ZM241385 from human recombinant A2A adenosine receptor expressed in HeLa cells incubated for 30 mins by radioligand binding competition assay; format: cell-based
Adenosine receptor A1 [3] = target: T2, Adenosine receptor A1 (Homo sapiens, UniProt P30542); test: Displacement of [3H] DPCPX from human recombinant A1 adenosine receptor expressed in CHO cells incubated for 60 mins by radioligand binding competition assay; format: cell-based
T2 sequence (P30542 whole entry): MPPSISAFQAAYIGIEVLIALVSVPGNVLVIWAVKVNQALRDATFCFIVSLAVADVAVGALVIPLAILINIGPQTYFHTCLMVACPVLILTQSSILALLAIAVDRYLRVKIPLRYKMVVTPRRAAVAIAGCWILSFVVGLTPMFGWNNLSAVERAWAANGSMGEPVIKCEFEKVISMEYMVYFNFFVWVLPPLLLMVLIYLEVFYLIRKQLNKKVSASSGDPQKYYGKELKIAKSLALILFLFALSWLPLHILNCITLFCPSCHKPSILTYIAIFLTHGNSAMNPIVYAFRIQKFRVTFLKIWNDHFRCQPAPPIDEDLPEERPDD

Adenosine receptor A1 [4] = target: T2, Adenosine receptor A1; test: Antagonist activity at human recombinant adenosine A1 receptor transfected in HEK293 cells co-transfected with Galpha15/16 assessed as intracellular calcium change incubated for 10 mins by microplate reader method; format: functional, cell-based
Adenosine receptor A2b = target: T3, Adenosine receptor A2b (Homo sapiens, UniProt P29275); test: Displacement of [3H] DPCPX from human recombinant A2B adenosine receptor expressed in HEK293 cells incubated for 30 mins by radioligand binding competition assay; format: cell-based
T3 sequence (P29275 whole entry): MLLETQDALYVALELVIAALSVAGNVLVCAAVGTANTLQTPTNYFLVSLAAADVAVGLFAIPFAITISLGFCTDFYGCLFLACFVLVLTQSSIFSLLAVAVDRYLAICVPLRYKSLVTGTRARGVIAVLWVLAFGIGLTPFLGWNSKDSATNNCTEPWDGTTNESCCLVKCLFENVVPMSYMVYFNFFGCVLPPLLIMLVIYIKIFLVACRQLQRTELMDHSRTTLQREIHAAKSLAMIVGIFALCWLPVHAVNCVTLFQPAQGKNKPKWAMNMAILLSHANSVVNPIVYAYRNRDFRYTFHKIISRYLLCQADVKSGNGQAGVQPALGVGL

Adenosine receptor A3 = target: T4, Adenosine receptor A3 (Homo sapiens, UniProt P0DMS8); test: Displacement of [3H] NECA from human recombinant A3 receptor expressed in HeLa cells incubated for 180 mins by radioligand binding competition assay; format: cell-based
T4 sequence (P0DMS8 whole entry): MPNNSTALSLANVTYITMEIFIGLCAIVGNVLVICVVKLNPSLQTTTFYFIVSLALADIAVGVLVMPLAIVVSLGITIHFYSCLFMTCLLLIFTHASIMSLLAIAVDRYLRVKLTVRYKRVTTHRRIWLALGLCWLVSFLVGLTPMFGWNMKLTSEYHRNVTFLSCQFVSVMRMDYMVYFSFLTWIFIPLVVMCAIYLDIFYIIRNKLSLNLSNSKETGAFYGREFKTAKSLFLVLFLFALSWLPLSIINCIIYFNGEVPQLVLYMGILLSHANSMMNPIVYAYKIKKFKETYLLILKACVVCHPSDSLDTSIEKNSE

T1 sequence (P29274 whole entry): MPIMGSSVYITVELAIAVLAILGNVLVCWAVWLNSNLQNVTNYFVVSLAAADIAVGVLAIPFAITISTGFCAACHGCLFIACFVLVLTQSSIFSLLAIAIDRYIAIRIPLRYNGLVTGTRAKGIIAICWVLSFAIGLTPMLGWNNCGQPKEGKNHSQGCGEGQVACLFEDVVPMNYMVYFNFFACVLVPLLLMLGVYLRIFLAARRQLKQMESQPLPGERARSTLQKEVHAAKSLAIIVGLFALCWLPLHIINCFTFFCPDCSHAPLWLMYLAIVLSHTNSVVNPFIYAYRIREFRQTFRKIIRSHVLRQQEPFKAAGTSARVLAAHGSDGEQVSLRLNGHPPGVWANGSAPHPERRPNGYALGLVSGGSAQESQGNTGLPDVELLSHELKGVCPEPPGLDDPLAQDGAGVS

| Structure (SMILES) | IC50 (Adenosine receptor A2a [1]) | Ki (Adenosine receptor A2a [2]) | Ki (Adenosine receptor A1 [3]) | IC50 (Adenosine receptor A1 [4]) | Ki (Adenosine receptor A2b) | Ki (Adenosine receptor A3) |
| --- | --- | --- | --- | --- | --- | --- |
| Cn1cc(-c2cnc(N)n3nc(-c4ccco4)nc23)ccc1=O | 5.72 nM | 5.58 nM | 24.2 nM | 25.9 nM | 491 nM | – |
| Cn1cc(-c2cnc(N)nc2-c2ccco2)ccc1=O | – | 26.9 nM | 88.6 nM | – | 58.9 nM | > 10000 nM |
| Cc1ccc(-c2nc3c(-c4ccc(=O)n(C)c4)cnc(N)n3n2)o1 | – | 448 nM | 88.4 nM | – | > 10000 nM | 2960 nM |
| Cc1csc(-c2nc3c(-c4ccc(=O)n(C)c4)cnc(N)n3n2)n1 | – | 1030 nM | 926 nM | – | > 10000 nM | > 10000 nM |
| Cn1cc(-c2cnc(N)n3nc(-c4nccs4)nc23)ccc1=O | – | 84.6 nM | 78 nM | – | 1590 nM | > 10000 nM |
| Cn1cc(-c2cnc(N)n3nc(-c4ccccn4)nc23)ccc1=O | – | 62.4 nM | 37.6 nM | – | > 10000 nM | > 10000 nM |
| Cn1ccc(-c2nc3c(-c4ccc(=O)n(C)c4)cnc(N)n3n2)n1 | – | 3430 nM | 722 nM | – | > 10000 nM | > 10000 nM |
| Cn1nccc1-c1nc2c(-c3ccc(=O)n(C)c3)cnc(N)n2n1 | – | 797 nM | 2970 nM | – | > 10000 nM | > 10000 nM |
| Cc1cnc(-c2nc3c(-c4ccc(=O)n(C)c4)cnc(N)n3n2)s1 | – | 43.9 nM | 21.9 nM | – | 9920 nM | 2930 nM |
| Cc1cccc(-c2nc3c(-c4ccc(=O)n(C)c4)cnc(N)n3n2)n1 | – | 3770 nM | 1720 nM | – | > 10000 nM | > 10000 nM |
